Data reported in PubChem BioAssay AID248 (DTP/NCI, 2004).
“And” between values parts separate entries of the source, which are not always exact repeats. Identical values can stand only once. Toxic doses and inconclusive results are not listed. Rule as the data show it: active = T/C of 150% or more; inactive = T/C below 125%.

Tested on: L1210 leukemia ip in BDF1 mice, survival T/C
Test: NCI In Vivo Anticancer Drug Screen. Data for tumor model L1210 Leukemia (intraperitoneal) in B6D2F1 (BDF1) mice
Conditions: endpoint: mean survival time, higher = longer survival
How it was run: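 Value reflects the ratio of survival in compound-treated mice to survival in vehicle-treated controls, with both groups carrying the same transplanted tumor.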

[1] = dose: 50.0 mg/kg/injection, schedule: Q01DX009 (ip), vehicle: saline with Tween-80
[2] = dose: 100.0 mg/kg/injection, schedule: Q01DX009 (ip), vehicle: saline with Tween-80
[3] = dose: 100.0 mg/kg/injection, schedule: Q01DX009 (ip), vehicle: Klucel (hydroxypropylcellulose) (HPC)
[4] = dose: 200.0 mg/kg/injection, schedule: Q01DX009 (ip), vehicle: Klucel (hydroxypropylcellulose) (HPC)
[5] = dose: 400.0 mg/kg/injection, schedule: Q01DX009 (ip), vehicle: Klucel (hydroxypropylcellulose) (HPC)
[6] = dose: 100.0 mg/kg/injection, schedule: Q04DX003 (ip), vehicle: Klucel (hydroxypropylcellulose) (HPC)
[7] = dose: 200.0 mg/kg/injection, schedule: Q04DX003 (ip), vehicle: Klucel (hydroxypropylcellulose) (HPC)
[8] = dose: 400.0 mg/kg/injection, schedule: Q04DX003 (ip), vehicle: Klucel (hydroxypropylcellulose) (HPC)
[9] = dose: 25.0 mg/kg/injection, schedule: Q01DX009 (ip), vehicle: saline with Tween-80
[10] = dose: 100.0 mg/kg/injection, schedule: Q04DX002 (ip), vehicle: Klucel (hydroxypropylcellulose) (HPC)
[11] = dose: 200.0 mg/kg/injection, schedule: Q04DX002 (ip), vehicle: Klucel (hydroxypropylcellulose) (HPC)
[12] = dose: 400.0 mg/kg/injection, schedule: Q04DX002 (ip), vehicle: Klucel (hydroxypropylcellulose) (HPC)
[13] = dose: 100.0 mg/kg/injection, schedule: Q04DX003 (ip), vehicle: saline

Measured: T/C

COC1OC(Cn2cc(-c3ccccc3)nn2)C(OC(C)=O)C(OC(C)=O)C1OC(C)=O (stereo not given)
inactive: dose: 100.0 mg/kg/injection, schedule: Q01DX005 (ip), vehicle: saline 100 % of control | dose: 200.0 mg/kg/injection, schedule: Q01DX005 (ip), vehicle: saline 96 % of control

COCCN(CCOC)/N=N/c1nc[nH]c1C(N)=O
inactive: dose: 50.0 mg/kg/injection, schedule: Q01DX001 (ip), vehicle: water 104 % of control | dose: 50.0 mg/kg/injection, schedule: Q04DX003 (ip), vehicle: water 98 % of control | dose: 100.0 mg/kg/injection, schedule: Q01DX001 (ip), vehicle: water 102 % of control | dose: 100.0 mg/kg/injection, schedule: Q04DX003 (ip), vehicle: water 107 % of control | dose: 200.0 mg/kg/injection, schedule: Q01DX001 (ip), vehicle: water 101 % of control | dose: 200.0 mg/kg/injection, schedule: Q04DX003 (ip), vehicle: water 100 % of control | dose: 400.0 mg/kg/injection, schedule: Q01DX001 (ip), vehicle: water 102 % of control | dose: 400.0 mg/kg/injection, schedule: Q04DX003 (ip), vehicle: water 111 % of control

CCOC(=O)C(CO)(CC(CO)(C(C)=O)C(=O)OCC)C(C)=O (stereo not given)
inactive: dose: 222.0 mg/kg/injection, schedule: Q01DX Z (ip), vehicle: methylcellulose (MC) 98 % of control | dose: 333.0 mg/kg/injection, schedule: Q01DX Z (ip), vehicle: methylcellulose (MC) 110 % of control | dose: 500.0 mg/kg/injection, schedule: Q01DX Z (ip), vehicle: methylcellulose (MC) 108 % of control

CCOC(=O)/C=C/c1cccc(O)c1
inactive: dose: 100.0 mg/kg/injection, schedule: Q01DX001 (ip), vehicle: gum acacia 106 % of control | dose: 200.0 mg/kg/injection, schedule: Q01DX001 (ip), vehicle: gum acacia 110 % of control | dose: 400.0 mg/kg/injection, schedule: Q01DX001 (ip), vehicle: gum acacia 97 % of control

OC(CNc1ccccc1)CN1CCN(CC(O)CNc2ccccc2)CC1 (stereo not given)
inactive: dose: 50.0 mg/kg/injection, schedule: Q01DX001 (ip), vehicle: saline 105 % of control | dose: 100.0 mg/kg/injection, schedule: Q01DX001 (ip), vehicle: saline 98 % of control | dose: 200.0 mg/kg/injection, schedule: Q01DX001 (ip), vehicle: saline 94 % of control

CCOc1ccccc1NC(=S)Nc1ccc([N+](=O)[O-])cc1
inactive: [1] 92 % of control | [2] 92 % of control | dose: 200.0 mg/kg/injection, schedule: Q01DX009 (ip), vehicle: saline with Tween-80 95 % of control

O=C1c2ccccc2C(=O)N1C/C=C/Cl
inactive: dose: 100.0 mg/kg/injection, schedule: Q04DX003 (ip), vehicle: saline with Tween-80 104 % of control | dose: 200.0 mg/kg/injection, schedule: Q04DX003 (ip), vehicle: saline with Tween-80 108 % of control | dose: 400.0 mg/kg/injection, schedule: Q04DX003 (ip), vehicle: saline with Tween-80 101 % of control

CCN1CCC2=C(CCCC2O)C1 (stereo not given)
inactive: dose: 75.0 mg/kg/injection, schedule: Q01DX001 (ip), vehicle: steriod suspending solution 104 % of control | dose: 150.0 mg/kg/injection, schedule: Q01DX001 (ip), vehicle: steriod suspending solution 98 % of control

CC(C)(C)NC(=O)Oc1ccc(-c2ccccc2)cc1Cl
inactive: [3] 95 % of control | [4] 100 % of control | [5] 100 % of control

CCOc1cccc(Cc2cn(CCC#N)c(=O)[nH]c2=O)c1
inactive: [6] 108 % of control | [7] 89 % of control | [8] 89 % of control

c1ccc(C[P+](c2ccccc2)(c2ccccc2)c2ccccc2)cc1
inactive: dose: 3.13 mg/kg/injection, schedule: Q01DX009 (ip), vehicle: Klucel (hydroxypropylcellulose) (HPC) 106 % of control | dose: 5.0 mg/kg/injection, schedule: Q01DX001 (ip), vehicle: saline with Tween-80 98 % of control | dose: 5.0 mg/kg/injection, schedule: Q01DX001 (ip), vehicle: saline 105 % of control | dose: 5.0 mg/kg/injection, schedule: Q01DX009 (ip), vehicle: saline with Tween-80 95 % of control | dose: 6.25 mg/kg/injection, schedule: Q01DX009 (ip), vehicle: Klucel (hydroxypropylcellulose) (HPC) 102 % of control and 95 % of control | dose: 10.0 mg/kg/injection, schedule: Q01DX001 (ip), vehicle: saline with Tween-80 92 % of control | dose: 10.0 mg/kg/injection, schedule: Q01DX001 (ip), vehicle: saline 100 % of control | dose: 10.0 mg/kg/injection, schedule: Q01DX009 (ip), vehicle: saline with Tween-80 87 % of control | dose: 12.5 mg/kg/injection, schedule: Q01DX009 (ip), vehicle: Klucel (hydroxypropylcellulose) (HPC) 107 % of control and 96 % of control and 110 % of control | dose: 12.5 mg/kg/injection, schedule: Q04DX003 (ip), vehicle: Klucel (hydroxypropylcellulose) (HPC) 102 % of control | dose: 20.0 mg/kg/injection, schedule: Q01DX001 (ip), vehicle: saline with Tween-80 90 % of control | dose: 20.0 mg/kg/injection, schedule: Q01DX001 (ip), vehicle: saline 96 % of control | dose: 25.0 mg/kg/injection, schedule: Q01DX009 (ip), vehicle: Klucel (hydroxypropylcellulose) (HPC) 89 % of control | dose: 25.0 mg/kg/injection, schedule: Q04DX003 (ip), vehicle: Klucel (hydroxypropylcellulose) (HPC) 102 % of control | dose: 40.0 mg/kg/injection, schedule: Q01DX001 (ip), vehicle: saline 105 % of control

N=C(N)SCc1ccc(Cl)cc1Cl
inactive: [9] 100 % of control | [1] 96 % of control | [2] 98 % of control | [10] 96 % of control | [11] 89 % of control | [12] 96 % of control

COC(=O)C/C(=C\c1ccc(OC)c(OC)c1)C(=O)OC
inactive: [3] 100 % of control | [6] 91 % of control | [4] 94 % of control | [7] 95 % of control | [5] 103 % of control | [8] 96 % of control

C[N+](C)(C)C1(Cc2ccccc2)c2ccccc2-c2ccc(Br)cc21 (stereo not given)
inactive: dose: 25.0 mg/kg/injection, schedule: Q01DX009 (ip), vehicle: saline 104 % of control | dose: 25.0 mg/kg/injection, schedule: Q04DX003 (ip), vehicle: saline 102 % of control | dose: 50.0 mg/kg/injection, schedule: Q01DX009 (ip), vehicle: saline 95 % of control | dose: 50.0 mg/kg/injection, schedule: Q04DX003 (ip), vehicle: saline 97 % of control | dose: 100.0 mg/kg/injection, schedule: Q01DX009 (ip), vehicle: saline 94 % of control | [13] 98 % of control and 100 % of control

O=C(Nc1ccccc1Cl)OC/C=C/c1ccccc1
inactive: [3] 103 % of control | [10] 88 % of control | [4] 96 % of control | [11] 88 % of control | [5] 108 % of control | [12] 100 % of control

CCCCCCCCCCCCC1CCCC(C)C1 (stereo not given)
inactive: [9] 89 % of control | [1] 99 % of control | [2] 92 % of control | dose: 100.0 mg/kg/injection, schedule: Q04DX002 (ip), vehicle: saline with Tween-80 105 % of control and 90 % of control | dose: 200.0 mg/kg/injection, schedule: Q04DX002 (ip), vehicle: saline with Tween-80 104 % of control and 90 % of control | dose: 400.0 mg/kg/injection, schedule: Q01DX009 (ip), vehicle: saline with Tween-80 90 % of control | dose: 800.0 mg/kg/injection, schedule: Q04DX002 (ip), vehicle: saline with Tween-80 97 % of control

Cc1ccc(NC(=O)Oc2ccc(Cl)cc2C)c([N+](=O)[O-])c1
inactive: [6] 102 % of control | [7] 101 % of control | [8] 91 % of control

Nc1nc(SCC(=O)c2ccc(F)cc2)sc1C(=O)c1ccc(F)cc1
inactive: [10] 100 % of control | [11] 112 % of control | [12] 100 % of control

Cc1ccc(C)c(NC(=O)Nc2cccc(Cl)c2)c1
inactive: [3] 93 % of control | [6] 92 % of control | [4] 96 % of control | [7] 89 % of control | [5] 91 % of control | [8] 87 % of control

O=C(O)CC1CCCCC1c1ccccc1 (stereo not given)
inactive: [3] 98 % of control | [6] 96 % of control | [4] 100 % of control | [7] 106 % of control | [5] 87 % of control | [8] 95 % of control

O=C(N/N=C/c1ccc2c(c1)CCC2)Nc1ccc([N+](=O)[O-])cc1[N+](=O)[O-]
inactive: [13] 91 % of control | dose: 200.0 mg/kg/injection, schedule: Q04DX003 (ip), vehicle: saline 98 % of control | dose: 400.0 mg/kg/injection, schedule: Q04DX003 (ip), vehicle: saline 101 % of control
